Laboratory results taken from patent US20220332720A1, “BICYCLIC AGONISTS OF STIMULATOR OF INTERFERON GENES STING” (The Scripps Research Institute, priority 2019, published 2022).
Where two headings read alike, the source gives them in different places. Each block holds one molecule with its values, some of them ahead of it.

Tested on: THP-1 Lucia ISG cells
Assay: ISG-LUC activation assay (ISRE-luciferase assay)
Format: cell-based
Conditions: Homo sapiens, THP1-Lucia ISG, read-out: ISG-LUC activation assay score
Excerpt: We have established a robust platform for identifying non-nucleotide small molecule STING agonists. his has been established using a primary assay involving a human THP-1 cell line carrying an IRF-inducible reporter with 5 copies of the IFN signaling response element. Counter screens, involving alternative reporter constructs, rodent cell-based assays, as well as cGAS and STING knock-out cell lines, are used to eliminate luciferase artifacts and ensure human-rodent cross species reactivity, as well as pathway selectivity. Biochemical assays, involving cGAS enzymatic activity and STING protein binding assays, are used to identify the specific target of identified hits.
Tissue culture. Wild-type (cat. no. thpl-isg) and STING KO (cat. no. thpd-kostg) THP-1-Lucia ISG cells were purchased from Invivogen and maintained in growth media consisting of RPMI 1640, 2mM L-glutamine, […], 10% heat-inactivated fetal bovine serum (FBS), 1,000 units/ml penicillin, 1,000 μg/ml streptomycin, 0.25 μg/ml Amphotericin B, and 100 μg/ml zeocin unless otherwise stated.
ISRE-luciferase assay. THP-1 Lucia ISG cells were resuspended in low-serum growth media (2% FBS) at a density of 5×10^5 cells/ml and treated with test article or vehicle (DMSO). 50 μL of cells were seeded into each well of a 384-well white greiner plates and incubated for 24 hours. To evaluate expression of the luciferase reporter, 30 μl of Quanti-luc (Invivogen) detection reagent was added to each well and luminescence was read using an Envision plate reader (Perkin Elmer) set with an integration time of 0.1 seconds.

[1] = THP-1 Lucia ISG reporter cells, 24 hours, score based upon potency and efficacy relative to reference compound

Compound: C#Cc1cc(NC(=O)c2cc(N)c3nnnn3n2)c(C(=O)O)cc1F [Compound 1, lithium 2-(8-aminotetrazolo[1,5-b]pyridazine-6-carboxamido)-4-ethynyl-5-fluorobenzoate]
EC50 (24 h): < 3 µM

Compound: C#Cc1cc(NC(=O)c2ccn3c(-c4cn[nH]c4)cnc3n2)c(C(=O)O)cc1F [Compound 4, 2-(3-(1H-pyrazol-4-yl)imidazo[1,2-a]pyrimidine-7-carboxamido)-4-ethynyl-5-fluorobenzoic acid]
EC50 [1]: > 20 µM

Compound: COC(=O)c1cc(F)c(F)cc1NC(=O)c1cccn2cnnc12 [Compound 15]
EC50 [1]: > 1 µM

Compound: C=Cc1ccc(C(=O)O)c(NC(=O)c2cc(N)c3nnnn3n2)c1 [Compound 16]
EC50 [1]: > 1 µM

Compound: Nc1cc(C(=O)Nc2cc(Cl)c(Cl)cc2C(=O)O)nn2nncc12 [Compound 17]
EC50 [1]: > 1 µM

Compound: C#Cc1cc(NC(=O)c2cc(N)n3ncnc3n2)c(C(=O)O)cc1F [Compound 18]
EC50 [1]: > 1 µM

Compound: C#Cc1cc(NC(=O)c2ccn3c(-c4cn[nH]c4)cnc3n2)c(C(=O)OC)cc1F [Compound 20]
EC50 [1]: > 1 µM

Compound: COC(=O)c1cc(F)c(F)cc1NC(=O)c1ccc2nccn2n1 [Compound 21]
EC50 [1]: > 20 µM

Compound: O=C(Nc1cc(F)c(F)cc1C(=O)O)c1ccc2nnnn2n1 [Compound 22]
EC50 [1]: > 1 µM

Compound: O=C1CCn2nc(C(=O)Nc3cc(Cl)c(Cl)cc3C(=O)O)nc2N1 [Compound 23]
EC50 [1]: > 20 µM

Compound: C#Cc1ccc(C(=O)O)c(NC(=O)c2cc(N)c3nnnn3n2)c1 [Compound 24]
EC50 [1]: > 1 µM

Compound: COC(=O)c1nc(Cl)c(Cl)cc1NC(=O)c1cnc2nc[nH]c2c1 [Compound 25]
EC50 [1]: > 20 µM

Compound: C=C(F)c1cc(NC(=O)c2cc(N)c3nnnn3n2)c(C(=O)O)cc1F [Compound 26]
EC50 [1]: > 1 µM

Compound: C#Cc1cc(NC(=O)c2cc(N)c3[nH]c(C4CC4)nc3n2)c(C(=O)OC)cc1F [Compound 27]
EC50 [1]: > 20 µM

Compound: C#Cc1ccc(NC(=O)c2cc(N)c3nnnn3n2)c(C(=O)O)c1 [Compound 28]
EC50 [1]: > 20 µM

Compound: Nc1cc(C(=O)Nc2cc3ccccc3cc2C(=O)O)nn2nnnc12 [Compound 29]
EC50 [1]: > 20 µM

Compound: Nc1cc(C(=O)Nc2cc(C3CC3)ccc2C(=O)O)nn2nnnc12 [Compound 31]
EC50 [1]: > 20 µM

Compound: C#Cc1cc(NC(=O)c2cc(N)n3ccnc3n2)c(C(=O)O)cc1F [Compound 32]
EC50 [1]: > 1 µM

Compound: C=C(F)c1ccc(C(=O)O)c(NC(=O)c2cc(N)c3cnnn3n2)c1 [Compound 33]
EC50 [1]: > 1 µM

Compound: C#Cc1cc(NC(=O)c2ccn3nc(N)nc3n2)c(C(=O)O)cc1F [Compound 37]
EC50 [1]: > 20 µM

Compound: COC(=O)c1sc(C)cc1NC(=O)c1cc(N)c2nnnn2n1 [Compound 38]
EC50 [1]: > 1 µM

Compound: CC#Cc1cc(NC(=O)c2cc(N)c3nnnn3n2)c(C(=O)OC)cc1F [Compound 39]
EC50 [1]: > 1 µM

Compound: N#Cc1cc(NC(=O)c2cc(N)c3nnnn3n2)c(C(=O)O)cc1F [Compound 41]
EC50 [1]: > 1 µM

Compound: Cc1cc(NC(=O)c2cc(N)c3nnnn3n2)c(C(=O)O)cc1F [Compound 43]
EC50 [1]: > 1 µM

Compound: CCOC(=O)c1nc(Cl)sc1NC(=O)c1cc(N)c2nnnn2n1 [Compound 45]
EC50 [1]: > 1 µM

Compound: C#Cc1cc(NC(=O)c2cc(N)n3c(C#N)cnc3n2)c(C(=O)O)cc1F [Compound 46]
EC50 [1]: > 20 µM

Compound: COc1cc(NC(=O)c2cc(N)c3nnnn3n2)c(C(=O)OC(C)C)cc1F [Compound 47]
EC50 [1]: > 1 µM

Compound: C#Cc1cc(NC(=O)c2cc(N)nn3nnnc23)c(C(=O)O)cc1F [Compound 50]
EC50 [1]: > 1 µM

Compound: C#Cc1cc(NC(=O)c2ccn3nc(-c4cn[nH]c4)nc3n2)c(C(=O)O)cc1F [Compound 51]
EC50 [1]: > 20 µM

Compound: C#Cc1cc(NC(=O)c2ccc3c(C#N)nnn3n2)c(C(=O)OC)cc1F [Compound 52]
EC50 [1]: > 1 µM

Compound: COc1cc(NC(=O)c2ccc3c(ncn3C)n2)c(C(=O)O)cc1F [Compound 55]
EC50 [1]: > 20 µM

Compound: COC(=O)c1cc(F)c(OC)cc1NC(=O)c1ccc2c(ncn2C)n1 [Compound 56]
EC50 [1]: > 1 µM

Compound: COC(=O)c1cc(F)c(OC)cc1NC(=O)c1ccn2c(N)nnc2n1 [Compound 57]
EC50 [1]: > 20 µM

Compound: COc1cc(NC(=O)c2ccn3c(N)nnc3n2)c(C(=O)O)cc1F [Compound 58]
EC50 [1]: > 20 µM

Compound: C#Cc1cc(NC(=O)c2ccn3c(-c4ccncc4)nnc3n2)c(C(=O)O)cc1F [Compound 59]
EC50 [1]: > 20 µM

Compound: C#Cc1cc(NC(=O)c2cc(N)c3nnnn3n2)c(C(=O)O[C@@H]2CSSC[C@H]2O)cc1F [Compound 60]
EC50 [1]: > 1 µM

Compound: C#Cc1cc(NC(=O)c2ccc3c(-c4nnc[nH]4)nnn3n2)c(C(=O)O)cc1F [Compound 61]
EC50 [1]: > 1 µM

Compound: C#Cc1cc(NC(=O)c2ccn3c(S(C)(=O)=O)nnc3n2)c(C(=O)O)cc1F [Compound 62]
EC50 [1]: > 20 µM

Compound: C#Cc1cc(NC(=O)c2ccn3c([S+](C)[O-])nnc3n2)c(C(=O)O)cc1F (stereo not drawn) [Compound 63]
EC50 [1]: > 20 µM

Compound: COC(=O)c1cc(C#N)c(Cl)cc1NC(=O)c1cc2[nH]cnc2cn1 [Compound 68]
EC50 [1]: > 1 µM

Compound: C#Cc1cc(NC(=O)c2cc(NC(=O)OC(C)(C)C)c3nnnn3n2)c(C(=O)OC)cc1F [Compound 70]
EC50 [1]: > 1 µM

Compound: COC(=O)c1cc(F)c(F)cc1NC(=O)c1ccc2nnnn2n1 [Compound 71]
EC50 [1]: > 1 µM

Compound: COC(=O)c1cc(C#N)c(Cl)cc1NC(=O)c1cnc2nc[nH]c2c1 [Compound 72]
EC50 [1]: > 20 µM

Compound: COc1cc(NC(=O)c2cc(N)c3nnnn3n2)c(C(=O)O)cc1F [Compound 73]
EC50 [1]: > 1 µM

Compound: COC(=O)c1cc(F)c(F)cc1NC(=O)c1ccn2c(C#N)cnc2n1 [Compound 75]
EC50 [1]: > 1 µM

Compound: COC(=O)c1cc(F)c(F)cc1NC(=O)N1CCn2cncc2C1 [Compound 76]
EC50 [1]: > 1 µM

Further lines, results first:

EC50 [1]: < 0.9 µM
Compound: C#Cc1cc2nc(-c3cc(N)c4nnnn4n3)oc(=O)c2cc1F [Compound 2, 2(8-aminotetrazolo[1,5-b]pyridazin-6-yl)-7-ethynyl-6-fluoro-4H-benzo[d][1,3]oxazin-4-one]

EC50 [1]: < 0.9 µM
Compound: COC(=O)c1cc(Cl)c(Cl)cc1NC(=O)c1ccn2c(C#N)cnc2n1 [Compound 3, methyl 4,5-dichloro-2-(3-cyanoimidazo[1,2-a]pyrimidine-7-carboxamido)benzoate]

EC50 [1]: > 1 µM
Compound: C=Cc1cc(NC(=O)c2cc(N)c3nnnn3n2)c(C(=O)O)cc1F [Compound 5]

EC50 [1]: < 3 µM
Compound: COc1cc(NC(=O)c2ccc3cnnn3n2)c(C(=O)O)cc1F [Compound 6]

EC50 [1]: < 3 µM
Compound: COc1cc(NC(=O)c2ccc3nnnn3n2)c(C(=O)O)cc1F [Compound 7]

EC50 [1]: > 1 µM
Compound: C#Cc1cc(NC(=O)c2cc(N)c3ncnn3n2)c(C(=O)O)cc1F [Compound 8]

EC50 [1]: < 3 µM
Compound: C#Cc1cc(NC(=O)c2ccc3nnnn3n2)c(C(=O)O)cc1F [Compound 9]

EC50 [1]: < 0.9 µM
Compound: COC(=O)c1cc(F)c(OC)cc1NC(=O)c1ccc2cnnn2n1 [Compound 10]

EC50 [1]: > 1 µM
Compound: C#Cc1cc(NC(=O)c2cc(N)c3nnnn3n2)c(C(=O)O)nc1Cl [Compound 11]

EC50 [1]: < 3 µM
Compound: C#Cc1cc(NC(=O)c2ccc3c(C(N)=O)nnn3n2)c(C(=O)O)cc1F [Compound 12]

EC50 [1]: > 1 µM
Compound: C#Cc1cc(NC(=O)c2ccc3c(C#N)nnn3n2)c(C(=O)O)cc1F [Compound 13]

EC50 [1]: < 3 µM
Compound: C#Cc1cc(NC(=O)c2cc(N)c3nnnn3n2)c(C(=O)O)cc1Cl [Compound 14]

EC50 [1]: < 0.9 µM
Compound: C#Cc1cc(NC(=O)c2cc(N)nn3nnnc23)c(C(=O)OC)cc1F [Compound 19]

EC50 [1]: < 0.9 µM
Compound: C=C(F)c1ccc(C(=O)OC)c(NC(=O)c2cc(N)n3ncnc3n2)c1 [Compound 30]

EC50 [1]: < 0.9 µM
Compound: C#Cc1cc(NC(=O)c2cc(N)c3nnnn3n2)c(C(=O)OC)cc1Cl [Compound 34]

EC50 [1]: < 0.9 µM
Compound: C/C=C/c1cc(NC(=O)c2cc(N)c3nnnn3n2)c(C(=O)OC)cc1F [Compound 35]

EC50 [1]: < 3 µM
Compound: C#Cc1cc(NC(=O)c2cc(N)c3nnnn3n2)c(C(=O)O)cc1C#N [Compound 36]

EC50 [1]: < 0.9 µM
Compound: COC(=O)c1cc(F)c(C)cc1NC(=O)c1cc(N)c2nnnn2n1 [Compound 40]

EC50 [1]: < 0.9 µM
Compound: C#Cc1cc(NC(=O)c2ccc3nnnn3n2)c(C(=O)OC)cc1F [Compound 42]

EC50 [1]: < 0.9 µM
Compound: C#Cc1cc2nc(-c3ccc4nnnn4n3)oc(=O)c2cc1F [Compound 44]

EC50 [1]: < 0.9 µM
Compound: COc1cc2nc(-c3ccc4nnnn4n3)oc(=O)c2cc1F [Compound 48]

EC50 [1]: < 0.9 µM
Compound: COc1cc2nc(-c3cc(N)c4nnnn4n3)oc(=O)c2cc1F [Compound 49]

EC50 [1]: < 0.9 µM
Compound: COc1cc(NC(=O)c2cc(N)c3nnnn3n2)c(C(=O)OC(C)OC(C)=O)cc1F (stereo not drawn) [Compound 54]

EC50 [1]: < 0.9 µM
Compound: C=Cc1ccc(C(=O)OC)c(NC(=O)c2cc(N)c3nnnn3n2)c1 [Compound 64]

EC50 [1]: < 0.9 µM
Compound: COC(=O)c1cc(Cl)c(Cl)cc1NC(=O)c1nn2nnnc2cc1N [Compound 65]

EC50 [1]: < 0.9 µM
Compound: C=C(F)c1ccc(C(=O)O)c(NC(=O)c2cc(N)c3nnnn3n2)c1 [Compound 66]

EC50 [1]: < 0.9 µM
Compound: COC(=O)c1cc(F)c(OC)cc1NC(=O)c1cc(N)c2nnnn2n1 [Compound 67]

EC50 [1]: < 0.9 µM
Compound: COC(=O)c1cc(F)c(F)cc1NC(=O)c1cc2[nH]cnc2cn1 [Compound 69]

EC50 [1]: < 3 µM
Compound: Nc1cc2nnnn2nc1C(=O)Nc1cc(Cl)c(Cl)cc1C(=O)O [Compound 74]
